Reference: patent US9999760B2, “DVDMS sensitizer for cancer sonodynamic therapy” (priority 2015, dated 2018)

What was measured:
[1] = tested on: peripheral blood mononuclear cells, spleen lymphocytes; assay: MTT assay of cytotoxicity in normal cells; format: cell-based, ICR mice
Description: (§1) Two kinds of leukemia cells (K562, U937) as main tumor cell models and cells (peripheral blood mononuclear cells, spleen lymphocytes) separated from healthy ICR mice as normal cell models were used. The multivolume spectrophotometer system and fluorescence spectrophotometer were used to determine the spectral characteristics of DVDMS. The uptake of DVDMS by tumor cells and normal cells was measured by flow cytometry. The MTT assay was used to examine the cytotoxicity and sonotoxicity of DVDMS.

[2] = tested on: 4T1 mammary cancer; assay: Photodynamic therapy in 4T1 mammary cancer-bearing mice; format: in vivo; conditions: for tumor volume inhibition ratio: 17th day
Description: At the beginning, we have pointed out that DVDMS is an active component isolated from Photofrin™ II. So it would be very interesting to compare the in vivo anti-cancer efficacy of DVDMS-PDT with PHOTOFRIN™-PDT (PF-PDT).
Representative mice were photographed at 6, 12, or 18 days after the corresponding treatments. […] However, tumor size decreased in a dose-dependent manner with increasing DVDMS and light exposure.
The tumor volume and tumor weight results were evaluated for each group.
On the 19th day, the tumors were photographed and the average tumor weight in each group was calculated.

[3] = tested on: leukemia cells (K562, U937); assay: MTT assay of cytotoxicity and sonotoxicity in leukemia cells; format: cell-based
Description: as §1

[4] = Spectral characteristics (absorption and fluorescence emission spectra); format: physicochemical
Description: as §1

[5] = tested on: sarcoma 180 solid tumors; assay: Sonodynamic antitumor effect in mice bearing sarcoma 180 solid tumors; format: in vivo
Description: In order to determine the optimum timing of ultrasound exposure after administration of DVDMS, a three-dimensional optical imaging system (IVIS spectrum) was used to observe the biodistribution of DVDMS in S180 tumor. The antitumor effects were estimated by the tumor inhibition ratio (volume and weight) after sonodynamic therapy. […] A significant synergistic effect of ultrasound combined with DVDMS was obtained when the load power indicated 4 W and DVDMS dose was above 2 mg/kg. […] Conclusions: DVDMS is a potential sensitizer for sonodynamic cancer therapy. The antitumor effect of ultrasound could be enhanced in the presence of DVDMS, which might be involved in a sonochemical mechanism.

[6] = tested on: tumor cells (K562, U937) and normal cells; assay: Cellular uptake by flow cytometry in tumor cells and normal cells; format: cell-based; conditions: tumor cells compared with normal healthy cells
Description: as §1

[7] = tested on: cancerous and normal cells; assay: Autofluorescence intensity and singlet oxygen production in cells; format: cell-based; conditions: compared with other photosensitizers / Photofrin
[8] = tested on: brain stem tumor; assay: Clinical cases of SDT for tumors of the brain stem; format: in vivo, patient
Description: Below are two typical clinical cases where SDT was selected for treatment of tumors of the brain stem. For Photofrin™ the dosage was 2 mg/kg of body weight. For DVDMS, the dosage was 0.2 mg/kg of body weight, a factor of ten less than Photofrin™. The ultrasound frequency was 0.5 to 1 MHz and the ultrasound power was 0.1 W/cm^2 to 1.5 W/cm^2. Ultrasound treatment is delayed after injection to permit absorbance of the sonodynamic compound into the tumor or other hyperproliferative tissue. In the case of Photofrin™ the delay is extensive, e.g. 20 to 30 hours. […] Due to differential absorption times into tumor, patient was intravenously injected with Photofrin™ 24 hours before ultrasound treatment and DVDMS was intravenously injected two hours prior to ultrasound treatment. Treatment occurred each time for 20-30 minutes and total time to treat three times was 72 hours.

[9] = tested on: skin; assay: Dermatological phototoxicity and skin retention after treatment; design: species or system patient; conditions: in vivo
[10] = tested on: ECA-109 cells; assay: Sonodynamic therapy in ECA-109 cells; format: cell-based
Excerpt: Abundant intracellular reactive oxygen species (ROS) was found in the SDT groups, and the cytotoxicity induced by SDT was effectively remitted by ROS scavengers. […] Release of cytochrome C, an increased rate of apoptosis, and activated apoptosis protein were detected in the SDT group. In addition, relatively severe cell damage was observed on scanning electron microscopy after treatment with DVDMS and SDT.

Compound: C=Cc1c(C)c2cc3nc(cc4[nH]c(cc5nc(cc1[nH]2)C(C)=C5C(C)OC(C)C1=C(C)c2cc5[nH]c(cc6nc(cc7[nH]c(cc1n2)c(C)c7CCC(=O)[O-])C(CCC(=O)[O-])=C6C)c(C)c5C=C)c(C)c4CCC(=O)[O-])C(CCC(=O)[O-])=C3C.[Na+].[Na+].[Na+].[Na+] (stereo not shown) [DVDMS]
- cytotoxicity to normal cells [1]: little cytotoxicity
- tumor size versus PF group ([2]; 2 mg/kg DVDMS vs 10 mg/kg PF, same light exposure 100 J/cm^2): less than in the 10 mg/kg PF group
- tumor volume inhibition ratio ([2]; 1 mg/kg DVDMS+50 J/cm^2, vs control): 38.51%
- tumor volume inhibition ratio ([2]; 2 mg/kg DVDMS alone, vs control): 7.42%
- tumor volume inhibition ratio ([2]; 2 mg/kg DVDMS+50 J/cm^2, vs control): 59.23%
- tumor volume inhibition ratio ([2]; 2 mg/kg DVDMS+100 J/cm^2, vs control): 66.97%
- tumor volume inhibition ratio ([2]; 2 mg/kg DVDMS+150 J/cm^2, vs control): 78.12%
- tumor volume inhibition ratio ([2]; group (2) mg/kg DVDMS+50 J/cm^2 (dose not given), vs control): 18.61%
- survival of tumor-bearing mice ([2]; DVDMS-PDT compared to control and DVDMS-only groups (p<0.01)): significantly prolonged
- survival of tumor-bearing mice versus PF-PDT ([2]; DVDMS-PDT vs PF-PDT (p<0.05)): more effective than PF-PDT
- tumor volume and tumor weight ([2]; nineteen days after treatment, DVDMS plus light exposure vs control or DVDMS alone): significantly lower
- sonotoxicity: cell-damaging effect of ultrasound in the presence of DVDMS ([3]; MTT, under appropriate conditions): significantly enhanced
- cytotoxicity by the MTT method ([3]; without ultrasound): dose dependent
- absorption spectra, maximum peak [4]: 359 nm
- fluorescence emission [4]: 642 nm
- tumor weight inhibition ratio ([5]; DVDMS alone, no ultrasound): 23.15%
- biodistribution (IVIS spectrum optical imaging) ([5]; S180 tumor-bearing mice): preferential localization in tumors, but a low accumulation in most normal tissues
- metastasis ([5]; SDT-treated mice compared with the control group): no metastasis occurred
- tumor volume inhibition ratio ([5]; day 14 after DVDMS-SDT): 56.27%
- tumor weight inhibition ratio ([5]; synergistic treatment (ultrasound combined with DVDMS)): 55.37%
- cellular uptake and accumulation [6]: quick cellular uptake and selective accumulation in tumor cells
- autofluorescence intensity [7]: significantly higher
- singlet oxygen production efficiency [7]: significantly higher
- time to what appears to be complete remission ([8]; SDT, 0.2 mg/kg): ≤ 30 days
- absorbance into the tumor after injection ([8]; compared with Photofrin): absorbance is much quicker
- efficacy in sonic treatment relative to Photofrin II ([8]; injected into a host): about ten times higher
- cranial MRI on review after SDT treatment ([8]; patient, 0.2 mg/kg): tumor was absorbed, brain stem edema was significantly reduced
- head MRI 30 days after treatment ([8]; patient, 0.2 mg/kg): ventral brain stem tumor has disappeared
- dermatological phototoxicity [9]: lacking dermatological phototoxicity
- subcellular location [10]: mainly to the mitochondria
- SDT cytotoxicity ([10]; compared with hematoporphyrin): more cytotoxic
